# Legend:
# [1] = system: Plasmodium falciparum; assay: Antimalarial activity against Plasmodium falciparum W2; type: functional, organism-based
# [2] = Cytotoxicity against human Mel20 cells; type: functional, cell-based
# [3] = system: P388; assay: Cytotoxicity against mouse P388 cells; type: functional, cell-based
# [4] = system: Plasmodium falciparum; assay: Antimalarial activity against Plasmodium falciparum D6; type: functional, organism-based
# [5] = system: HT-29; assay: Cytotoxicity against human HT-29 cells; type: functional, cell-based
# [6] = system: A549; assay: Cytotoxicity against human A549 cells; type: functional, cell-based
smiles,measurement,setting,value
CC(C)=C[C@H]1C[C@H](C)[C@]2(CC[C@]3(C)C[C@H]4[C@H](C(=O)C[C@@]4(C)O)/C(C=O)=C\C[C@H]32)O1 [OPHIOBOLIN A],IC50,[1],0.58 µg/mL
same,IC50,[2],0.05 µg/mL
same,IC50,[3],0.025 µg/mL
same,IC50,[4],< 0.529 µg/mL
same,IC50,[5],0.05 µg/mL
same,IC50,[6],0.05 µg/mL

# From ChEMBL document CHEMBL1144056, “Characterization of 6-epi-3-anhydroophiobolin B from Cochliobolus heterostrophus” (J Nat Prod, 1999)
